Values after ≈ are worked out from the molar mass of the structure shown. Active and inactive are the calls of the source. The rule behind the calls is not given here.
Legend:
KB = assay: Cytotoxicity against human KB cells after 72 hrs by methylene blue dye assay; format: functional, cell-based
MKN-45 = assay: Cytotoxicity against human MKN45 cells after 72 hrs by methylene blue dye assay; format: functional, cell-based; settings: MKN-45, 72 h
[1] = Solubility of the compound in phosphate buffer at 2 mg at pH 7.4 after 24 hrs; format: physicochemical
[2] = Aqueous solubility in distilled water at 2 mg after 24 hrs; format: physicochemical
[3] = Metabolic stability in human liver microsomes assessed as compound remaining at 1 uM after 30 mins; format: ADME, Microsome; settings: read-out: Stability
[4] = Inhibition of tubulin polymerization measured every 30 seconds for 30 mins
[5] = Cmax in Sprague-Dawley rat at 20 mg/kg, po; format: ADME, organism-based; design: dose 20 mg/kg, route oral; settings: in vivo
Rattus norvegicus [6] = assay: Half life in Sprague-Dawley rat plasma at 5 mg/kg, iv; format: ADME, organism-based; design: dose 5 mg/kg, route intravenous; settings: in vivo
[7] = Oral bioavailability in Sprague-Dawley rat at 20 mg/kg; format: ADME, organism-based; settings: in vivo
Rattus norvegicus [8] = assay: AUC in Sprague-Dawley rat at 5 mg/kg, iv; format: ADME, organism-based, Plasma; design: dose 5 mg/kg, route intravenous; settings: in vivo
[9] = Half life in Sprague-Dawley rat plasma at 20 mg/kg, po; format: ADME, organism-based; design: dose 20 mg/kg, route oral
[10] = AUC in Sprague-Dawley rat at 20 mg/kg, po; format: ADME, organism-based; design: dose 20 mg/kg, route oral; settings: plasma
[11] = Tmax in Sprague-Dawley rat at 20 mg/kg, po; format: ADME, organism-based; design: dose 20 mg/kg, route oral; settings: in vivo
Rattus norvegicus [12] = assay: Volume of distribution at steady state in Sprague-Dawley rat at 5 mg/kg, iv; format: ADME, organism-based; design: dose 5 mg/kg, route intravenous; settings: in vivo

Row | SMILES | IC50 (KB) | IC50 (MKN-45) | solubility at 24 h [1] | solubility at 24 h [2] | remaining at 0.5 h, 1 µM [3] | other results
1 | COc1ccn2c(C(=O)c3cc(OC)c(OC)c(OC)c3)cnc2c1 | 770 nM | 730 nM |  |  |  | 
2 | COc1ccc2c(C(=O)c3cc(OC)c(OC)c(OC)c3)c[nH]c2n1 | 20 nM | 16 nM | < 1 µg/mL | < 2 µg/mL | 88.3% | 
3 | CCOc1ccc2c(C(=O)c3cc(OC)c(OC)c(OC)c3)c[nH]c2n1 | 12 nM | 14 nM | < 1 µg/mL | < 2 µg/mL | 96.4% | inhibition [4]: Active
4 | COc1ccn2c(C(=O)c3cc(OC)c(OC)c(OC)c3)c(C)cc2c1 | > 1000 nM | 354 nM |  |  |  | 
5 | COc1cc(C(=O)c2c[nH]c3nc(C)ccc23)cc(OC)c1OC [listing 1 of 2 here] |  |  |  |  |  | inhibition [4]: Active
6 | COc1cc(C(=O)c2c[nH]c3nc(C)ccc23)cc(OC)c1OC.Cl |  |  | 79.6 µg/mL | 91.3 µg/mL |  | 
7 | COc1ccc2c(C(=O)c3cc(OC)c(OC)c(OC)c3)cnn2n1 | > 1000 nM | > 1000 nM |  |  | 99.6% | 
8 | COc1ccc2c(C(=O)c3cc(OC)c(OC)c(OC)c3)c[nH]c2c1 | 6 nM | 5 nM | 0.61 µg/mL (≈ 1.79 µM) | 0.9 µg/mL (≈ 2.64 µM) | 54.1% | Cmax [5]: 179 ng/mL; t1/2 (Rattus norvegicus [6]): 0.9 h; bioavailability [7]: 9.7%; AUC (Rattus norvegicus [8]): 2712 ng·h/mL; half-life [9]: 2.8 h; AUC [10]: 1310 ng·h/mL; Tmax [11]: 4 h; Vdss (Rattus norvegicus [12]): 1.6 L/kg
9 | COc1cc(C(=O)c2c[nH]c3nc(C)ccc23)cc(OC)c1OC [listing 2 of 2 here] |  |  | 8.3 µg/mL (≈ 25.4 µM) | 14.3 µg/mL (≈ 43.8 µM) |  | Cmax [5]: 3750 ng/mL; t1/2 (Rattus norvegicus [6]): 0.4 h; bioavailability [7]: 35%; AUC (Rattus norvegicus [8]): 2653 ng·h/mL; half-life [9]: 1.3 h; AUC [10]: 4640 ng·h/mL; Tmax [11]: 0.5 h; Vdss (Rattus norvegicus [12]): 0.7 L/kg
10 | COc1ccc2c(C(=O)c3cc(OC)c(OC)c(OC)c3)ccn2c1 | 284 nM | 80 nM |  |  |  | 
11 | COc1ncc2c(C(=O)c3cc(OC)c(OC)c(OC)c3)c[nH]c2n1 | 284 nM | 80 nM |  |  |  | 
12 | COc1ccc2c(C(=O)c3cc(OC)c(OC)c(OC)c3)n[nH]c2c1 | 70 nM | 95 nM |  |  |  | 
13 | COc1ccc2c(C(=O)c3cc(OC)c(OC)c(OC)c3)c(C)cn2c1 | 31 nM | 26 nM |  |  | 35.4% | inhibition [4]: Active

From ChEMBL document CHEMBL1772986, “Scaffold-hopping strategy: synthesis and biological evaluation of 5,6-fused bicyclic heteroaromatics to identify orally bioavailable anticancer agents” (J Med Chem, 2011)
